Where two headings read alike, the source gives them in different places. Marks after values point to notes of the source that are not given here.
Key:
cytochrome P-450 = conditions: microsomal preparations; cited from earlier work
[1] = cited from earlier work; for metabolized fraction of the absorbed anesthetic: in vivo
[2] = 37° C.; cited from earlier work
[3] = humans; cited from earlier work
[4] = mouse, inhalation, 0.05%, 18 months; cited from earlier work
[5] = test system: spermatogonia cells and bone marrow cells; conditions: rat, one-year exposure, 1 and 10 ppm, with nitrous oxide; cited from earlier work
[6] = test system: Chinese hamster lung fibroblast; conditions: cited from earlier work
[7] = test system: Chinese hamster ovary cells; conditions: cited from earlier work
human leukocyte culture = conditions: cited from earlier work
[8] = rat, 10 ppm, with nitrous oxide; cited from earlier work
[9] = subanesthetic and/or anesthetic concentrations; cited from earlier work
AAMU-Ab = assay: Competitive antigen ELISA, cross-reactivity of AAMU-Ab; format: binding, rabbit; conditions: 0 = absence of inhibition or inhibition no higher than 40% at 5 × 10^−3 M
Procedure: (§1) Buffers and water without additives are filtered through millipore filters and kept for 1 week. BSA, antibodies, Tween™ 20 and horse radish peroxidase conjugates are added to these buffers and water just prior to use. Urine samples are usually collected 4 hours after drinking a cup of coffee (instant or brewed with approximately 100 mg of caffeine per cup) and stored at 80° C. The urine samples are diluted 10 times with sodium phosphate buffer (620 mosm, pH 7.50) and are subsequently diluted with water to give concentrations of AAMU and 1× no higher than 3×10^−6 M in the ELISA. All the pipettings are done with an eight-channel pipette, except those of the antibody and sample solutions. Starting with the last well, 100 μL of a carbonate buffer (100 mM, pH 9.6) containing 2.5 μg mL-^1 antibodies are added to each well. After 90 min. at room temperature, the wells are washed three times with […] of TPB: isotonic sodium phosphate buffer (310 mosm, pH 7.50) containing 0.05% Tween™ 20.
(§2) After the initial wash, unoccupied sites are blocked by incubation for 90 min. at room temperature with 100 μL TBP containing 3% BSA. The wells are washed four times with 100 μL TPB. […] The microplate is gently shaken with an orbital shaker at room temperature for 3-4 hours. The wells are washed three times with 100 μL TPB containing 1% BSA and three times with water containing 0.05% Tween™ 20. To the washed plate is added 150 μL of a substrate buffer composed of citric acid (25 mM) and sodium phosphate dibasic buffer (50 mM, pH 5.0) containing 0.06% hydrogen peroxide and 0.04% o-phenylenediamine hydrochloride.
(§3) Buffers and water without additives were filtered through millipore filters and kept for 1 week. BSA, antibodies, Tween™ 20 and horse radish peroxidase conjugates were added to these buffers and water just prior to use. Urine samples were usually collected 4 hours after drinking a cup of coffee (instant or brewed with approximately 100 mg of caffeine per cup) and stored at −80° C. They were diluted 10 times with sodium phosphate buffer (620 mosm, pH 7.50) and were subsequently diluted with water to give concentrations of AAMU and 1× no higher than 3×10^−6 M in the ELISA. All the pipettings were done with an eight-channel pipette, except those of the antibody and sample solutions. Starting with the last well, 100 μL of a carbonate buffer (100 mM, pH 9.6) containing 2.5 μg mL-^1 antibodies was pipetted. After 90 min. at room temperature, the wells were washed three times with 100 μL of TPB: isotonic sodium phosphate buffer (310 mosm, pH 7.50) containing 0.05% Tween™ 20.
(§4) After the initial wash, unoccupied sites were blocked by incubation for 90 min. at room temperature with 100 μL TBP containing 3% BSA. The wells were washed four times with 100 μL TPB. […] The microplate was gently shaken with an orbital shaker at room temperature for 3-4 hours. The wells were washed three times with 100 μL with TPB containing 1% BSA and three times with water containing 0.05% Tween™ 20. To the washed plate was added 150 μL of a substrate buffer composed of citric acid (25 mM) and sodium phosphate dibasic buffer (50 mM, pH 5.0) containing 0.06% hydrogen peroxide and 0.04% o-phenylenediamine hydrochloride. After 20 min. at room temperature with shaking, the reaction was stopped with 50 μL of 2.5 N HCl.
(§5) The cross reactivities of AAMU-Ab and 1×-Ab were tested using a wide variety of caffeine metabolites and structural analogs (Table 2 below). AAMU-Ab appeared highly specific for binding AAMU, while 1×-Ab appeared relatively specific for binding 1×.

1X-Ab = assay: Competitive antigen ELISA, cross-reactivity of 1X-Ab; format: binding, rabbit; conditions: 0 = absence of inhibition or inhibition no higher than 40% at 5 × 10^−3 M
Procedure: as §1, §2, §3, §4, §5

[10] = cited from earlier work

In the case of `FC(F)(F)C(Cl)Br` (racemic) [Halothane, 2-bromo-2-chloro-1,1,1-trifluoro-ethane], the “concentration that destroys cytochrome P-450” value (cytochrome P-450) is given as 18800 µM, the “metabolized fraction of the absorbed anesthetic” value [1] is given as 25-45% and the blood/gas coefficient [2] is given as 2.5. For the same compound, the olive oil/water coefficient [2] was 220, the “minimum alveolar concentration (MAC)” value [3] was 0.64% and the carcinogenicity [4] was “no evidence of anesthetic-related carcinogenicity”. For the same compound, the “mutagenesis, chromosomal damage” value [5] was “chromosomal damage to spermatogonia cells and bone marrow cells”, the “mutagenesis, Chinese hamster lung fibroblast assay” value [6] was “Negative” and the “mutagenesis, sister chromatid exchange” value [7] was “Negative”. The “mutagenesis, human leukocyte culture assay” value (human leukocyte culture) was “Negative”, the fertility [8] was “decreased fertility” and the teratogenic effects [9] was “teratogenic, embryotoxic, and fetotoxic”.
With `Cn1c(=O)c2c(ncn2C)n(C)c1=O` [1,3,7-Trimethyl Xanthine (Caffeine), 1,3,7-Trimethyl Xanthine] the “% Cross-Reaction AAMU-Ab” value (AAMU-Ab) was 0% and the “% Cross-Reaction 1X-Ab” value (1X-Ab) was 0%.
In the case of `Cn1c(=O)c2[nH]cnc2n(C)c1=O` [1,3-Dimethyl Xanthine (Theophylline), 1,3-Dimethyl Xanthine], the “% Cross-Reaction AAMU-Ab” value (AAMU-Ab) is reported as 0% and the “% Cross-Reaction 1X-Ab” value (1X-Ab) is reported as 0.2%.
With `Cn1c(=O)[nH]c2ncn(C)c2c1=O` [1,7-Dimethyl Xanthine (Paraxanthine), 1,7-Dimethyl Xanthine] the “% Cross-Reaction AAMU-Ab” value (AAMU-Ab) was 0% and the “% Cross-Reaction 1X-Ab” value (1X-Ab) was 0.5%.
For `Cn1c(=O)[nH]c2[nH]c(=O)n(C)c2c1=O` [1,7-Dimethyluric acid], the “% Cross-Reaction AAMU-Ab” value (AAMU-Ab) was 0% and the “% Cross-Reaction 1X-Ab” value (1X-Ab) was 0%.
In the case of `Cn1c(=O)[nH]c2nc[nH]c2c1=O` [1-Methyl Xanthine (1X), 1-Methyl Xanthine], the “% Cross-Reaction AAMU-Ab” value (AAMU-Ab) is reported as 0% and the “% Cross-Reaction 1X-Ab” value (1X-Ab) is reported as 100%.
With `Cn1c(=O)[nH]c2[nH]c(=O)[nH]c2c1=O` [1-Methyluric acid] the “% Cross-Reaction AAMU-Ab” value (AAMU-Ab) was 0% and the “% Cross-Reaction 1X-Ab” value (1X-Ab) was 11%.
With `Cn1cnc2c1c(=O)[nH]c(=O)n2C` [3,7-Dimethyl Xanthine (Theobromine), 3,7-Dimethyl Xanthine] the “% Cross-Reaction AAMU-Ab” value (AAMU-Ab) was 0% and the “% Cross-Reaction 1X-Ab” value (1X-Ab) was 0%.
With `Cn1c(=O)[nH]c(=O)c2[nH]cnc21` [3-Methyl Xanthine] the “% Cross-Reaction AAMU-Ab” value (AAMU-Ab) was 0% and the “% Cross-Reaction 1X-Ab” value (1X-Ab) was 0%.
In the case of `CC(=O)Nc1c(N)n(C)c(=O)n(C)c1=O` [5-Acetamino-6-amino-1,3-dimethyluracil], the “% Cross-Reaction AAMU-Ab” value (AAMU-Ab) is reported as 0% and the “% Cross-Reaction 1X-Ab” value (1X-Ab) is reported as 0%.
In the case of `CC(=O)Nc1c(N)n(C)c(=O)[nH]c1=O` [5-Acetamino-6-amino-1-methyluracil], the “% Cross-Reaction AAMU-Ab” value (AAMU-Ab) is reported as 100% and the “% Cross-Reaction 1X-Ab” value (1X-Ab) is reported as 0%.
With `CC(=O)Nc1c(N)[nH]c(=O)[nH]c1=O` [5-Acetamino-6-amino-uracil] the “% Cross-Reaction AAMU-Ab” value (AAMU-Ab) was 0.6% and the “% Cross-Reaction 1X-Ab” value (1X-Ab) was 0%.
In the case of `Cn1cnc2[nH]c(=O)[nH]c(=O)c21` [7-Methyl Xanthine], the “% Cross-Reaction AAMU-Ab” value (AAMU-Ab) is reported as 0% and the “% Cross-Reaction 1X-Ab” value (1X-Ab) is reported as 0%.
In the case of `Cc1nc2[nH]c(=O)[nH]c(=O)c2[nH]1` [8-Methyl Xanthine], the “% Cross-Reaction AAMU-Ab” value (AAMU-Ab) is reported as 0% and the “% Cross-Reaction 1X-Ab” value (1X-Ab) is reported as 0%.
In the case of `FC(F)OC(F)(F)C(F)Cl` (stereo not drawn) [Enflurane], the “concentration that destroys cytochrome P-450” value (cytochrome P-450) is listed as 13300 µM and the “metabolized fraction of the absorbed anesthetic” value [1] is listed as 2-8%.
With `Nc1nc2nc[nH]c2c(=O)[nH]1` [Guanine] the “% Cross-Reaction AAMU-Ab” value (AAMU-Ab) was 0% and the “% Cross-Reaction 1X-Ab” value (1X-Ab) was 0%.
With `O=c1[nH]cnc2nc[nH]c12` [Hypoxanthine] the “% Cross-Reaction AAMU-Ab” value (AAMU-Ab) was 0% and the “% Cross-Reaction 1X-Ab” value (1X-Ab) was 0%.
With `O=c1cc[nH]c(=O)[nH]1` [Uracil] the “% Cross-Reaction AAMU-Ab” value (AAMU-Ab) was 0% and the “% Cross-Reaction 1X-Ab” value (1X-Ab) was 0%.
With `O=c1[nH]c(=O)c2[nH]c(=O)[nH]c2[nH]1` [Uric acid] the “% Cross-Reaction AAMU-Ab” value (AAMU-Ab) was 0% and the “% Cross-Reaction 1X-Ab” value (1X-Ab) was 0%.
For `O=c1[nH]c(=O)c2[nH]cnc2[nH]1` [Xanthine], the “% Cross-Reaction AAMU-Ab” value (AAMU-Ab) was 0^a % and the “% Cross-Reaction 1X-Ab” value (1X-Ab) was 0%.
In the case of `Nc1ccc(S(=O)(=O)c2ccc(N)cc2)cc1` [dapsone], the adverse reactions ([10]; fast acetylators) is given as 17% and the adverse reactions ([10]; slow acetylators) is given as 46%.
For `FC(F)OC(Cl)C(F)(F)F` (stereo not drawn) [isoflurane], the “metabolism, fraction of the absorbed anesthetic” value ([1]; estimated) is listed as “approximately 0.2%”.
For `COC(F)(F)C(Cl)Cl` [methoxyflurane], the “concentration that destroys cytochrome P-450” value (cytochrome P-450) is listed as 5800 µM.

Source: patent publication US20040101477A1, “Individualization of therapy with anesthetics” (Xanthus Life Sciences, Inc., priority 2002, published 2004)
